pIC50: −log10 of the molar value.
Legend:
[1] = target: T1, recombinant GBA enzyme (human GBA1) (Homo sapiens, UniProt P04062); assay: Evaluation of human GBA1 enzyme inhibitory activity (4-MUG substrate); type: biochemical; conditions: pH5.2, 37° C. 60 min, read-out: GBA1 inhibition IC50
T1 sequence (P04062 40-536): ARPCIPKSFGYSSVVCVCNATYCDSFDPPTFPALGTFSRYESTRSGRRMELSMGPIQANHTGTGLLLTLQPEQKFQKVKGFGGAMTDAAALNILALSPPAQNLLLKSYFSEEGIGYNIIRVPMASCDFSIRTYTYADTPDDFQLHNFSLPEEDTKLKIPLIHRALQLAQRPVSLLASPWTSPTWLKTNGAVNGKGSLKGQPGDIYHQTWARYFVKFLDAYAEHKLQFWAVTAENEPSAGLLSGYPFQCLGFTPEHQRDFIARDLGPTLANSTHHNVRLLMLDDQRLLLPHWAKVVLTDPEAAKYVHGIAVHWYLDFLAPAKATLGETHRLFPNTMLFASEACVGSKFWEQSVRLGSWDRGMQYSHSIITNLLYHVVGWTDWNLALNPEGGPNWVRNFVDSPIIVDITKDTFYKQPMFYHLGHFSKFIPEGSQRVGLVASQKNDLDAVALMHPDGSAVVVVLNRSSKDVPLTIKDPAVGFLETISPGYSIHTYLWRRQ

[2] = target: T2, human GBA2 (Homo sapiens, UniProt Q9HCG7); assay: Evaluation of human GBA2 enzyme inhibitory activity (GBA2-rich membrane suspension, 4-MUG); type: biochemical; conditions: GBA2-rich membrane of transfected HEK293T cells, CBE preincubation, read-out: GBA2 inhibition IC50
T2 construct: The complete open reading frames for GBA2 (human NM_020944.2) was amplified from human tissue; made in house; host or cells: HEK293T cells, transiently transfected (pCDNA-3.1); washed membrane pellet used as crude enzyme
T2 sequence (Q9HCG7 1-927): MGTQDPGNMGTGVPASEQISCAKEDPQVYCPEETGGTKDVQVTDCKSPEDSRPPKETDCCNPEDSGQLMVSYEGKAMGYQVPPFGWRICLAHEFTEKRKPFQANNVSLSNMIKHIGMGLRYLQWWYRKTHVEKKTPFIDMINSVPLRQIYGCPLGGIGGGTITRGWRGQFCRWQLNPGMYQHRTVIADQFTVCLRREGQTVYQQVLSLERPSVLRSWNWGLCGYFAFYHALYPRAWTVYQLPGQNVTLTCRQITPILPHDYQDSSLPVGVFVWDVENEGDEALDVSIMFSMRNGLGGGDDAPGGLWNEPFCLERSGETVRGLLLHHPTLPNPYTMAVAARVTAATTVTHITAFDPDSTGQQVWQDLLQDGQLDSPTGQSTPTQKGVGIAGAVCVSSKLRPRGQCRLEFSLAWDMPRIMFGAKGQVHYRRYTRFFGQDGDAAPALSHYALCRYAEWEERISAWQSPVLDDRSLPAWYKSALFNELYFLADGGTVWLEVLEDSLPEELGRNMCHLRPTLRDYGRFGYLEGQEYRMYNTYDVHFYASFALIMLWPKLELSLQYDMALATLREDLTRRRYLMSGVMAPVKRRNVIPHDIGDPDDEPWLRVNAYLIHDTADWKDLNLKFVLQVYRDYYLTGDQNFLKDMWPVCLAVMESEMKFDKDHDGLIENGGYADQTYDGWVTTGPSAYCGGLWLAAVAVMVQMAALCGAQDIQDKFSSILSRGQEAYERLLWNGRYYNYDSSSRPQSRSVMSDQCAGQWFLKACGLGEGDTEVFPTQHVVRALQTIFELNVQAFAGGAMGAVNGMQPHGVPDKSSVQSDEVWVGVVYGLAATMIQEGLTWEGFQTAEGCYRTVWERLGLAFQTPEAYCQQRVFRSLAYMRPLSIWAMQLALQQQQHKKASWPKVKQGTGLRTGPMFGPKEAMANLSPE

[3] = system: GBA1 (β-glucocerebrosidase mutation of N307S) in Gaucher's cell line GM00372; assay: Evaluation of human GBA1 cellular activity (Gaucher's cell line, 6 days treatment); type: cell-based; conditions: GM00372 cells, DMSO-treated cells as negative control, normalized to protein
Experimental: The Gaucher's cell line with β-glucocerebrosidase mutation of N307S (Coriell Institute, Cat. GM00372) was cultured and expanded using EMEM with 15% FBS. The cell was passaged at least twice and could be used until the 20th passages. The cells were seeded at the density of 1.25×10^4 cells/well in 96-well plate. After cell culturing overnight, 50 μL of cell medium was discarded, and 50 μL of the diluted compound was added (with 0.3% DMSO). The cells were treated with compound for 6 days. On day 6, the cells were washed once with HBSS and incubated in HBSS for 3 h followed by lysing using 30 μL assay buffer (pH5.2 Mcllvaine buffer supplemented with 0.25% sodium taurocholate, 0.5% Triton X-100 and protease cocktail inhibitor) for 5 min at 4° C. on shaker. For GBA enzymatic assay, 15 μL of cell lysate was incubated with 5 μL of 4-MUG (6 mmol/L) for 60 min in 384 well format followed by adding 20 μL of stop solution (1 mmol/L glycine solution adjusted to pH10 using 1 mol/L NaOH). The reaction product of 4-MU was measured (excitation 355 nm, emission 450 nm) on fluorescence spectrophotometer. For the protein quantification, 4 μL of cell lysate was mixed with 36 μL of Pierce BCA reagents for 30 min. The protein was detected according to the manufacturer's instructions. Enzyme activity in cell lysate was normalized to protein concentration. The blank included substrate and assay buffer followed by addition of stop solution. Enzyme activity in cells treated with DMSO was used as a negative control, and results were represented as the percent change in enzyme activity in cells treated with each compound.

[4] = target: T3, Human GCS (Homo sapiens, UniProt Q16739); assay: Evaluation of human GCS enzyme inhibitory activity (HL60 cell lysate, NBD-C6 ceramide, LC/MSMS); type: biochemical; conditions: 37° C. 90 min, read-out: GCS inhibition IC50
T3 construct: The lysate of HL60 cells were used in this assay; endogenous in cells; host or cells: HL60 cells (lysate supernatant)
T3 sequence (Q16739 1-394): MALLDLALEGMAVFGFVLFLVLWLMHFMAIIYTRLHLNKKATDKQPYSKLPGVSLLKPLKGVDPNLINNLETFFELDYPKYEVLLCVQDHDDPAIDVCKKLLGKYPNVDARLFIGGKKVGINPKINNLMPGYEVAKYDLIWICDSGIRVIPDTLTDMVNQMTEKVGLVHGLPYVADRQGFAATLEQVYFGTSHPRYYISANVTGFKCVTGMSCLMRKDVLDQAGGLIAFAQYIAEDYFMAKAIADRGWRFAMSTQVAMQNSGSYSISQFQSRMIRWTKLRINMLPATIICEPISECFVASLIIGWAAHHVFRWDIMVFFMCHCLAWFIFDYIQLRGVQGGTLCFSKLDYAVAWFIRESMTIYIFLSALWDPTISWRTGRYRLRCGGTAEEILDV

| pIC50 [1] | pIC50 [2] | pIC50 [4] | SMILES | Percent change in enzyme activity at test concentration 0.37 μM [3] [%] | Percent change in enzyme activity at test concentration 1.1 μM [3] [%] | Percent change in enzyme activity at test concentration 3.3 μM [3] [%] | Percent change in enzyme activity at test concentration 10 μM [3] [%] | Percent change in enzyme activity at test concentration […] [3] [%] |
| --- | --- | --- | --- | --- | --- | --- | --- | --- |
| 5.92 | < 5.00 | 6.72 | CCOc1cc(COC[C@@H](F)CCCCN2C[C@H](O)[C@@H](O)[C@H](O)[C@@H](O)C2)ccc1F (single isomer, unassigned) [Example 72] | 214 | 248 | 259 | 284 | 160 |
| 5.77 | < 5.00 | 7.52 | O[C@H]1[C@H](O)[C@@H](O)CN(CCCC[C@H](F)COCc2csc(-c3ccc(F)cc3)n2)C[C@@H]1O (single isomer, unassigned) [Example 74] | 150 | 185 | 193 | 216 | 96 |
|  |  |  | Cc1nc(COC[C@@H](F)CCCCN2C[C@H](O)[C@@H](O)[C@H](O)[C@@H](O)C2)c(-c2cc(F)cc(F)c2)o1 (single isomer, unassigned) [Example 100] | 147 | 145 | 163 | 169 | 142 |
| 5.96 | < 5.00 | 6.77 | CCc1ccc(COC[C@@H](F)CCCCN2C[C@H](O)[C@@H](O)[C@H](O)[C@@H](O)C2)cc1 (single isomer, unassigned) [Example 101] | 157 | 209 | 219 | 227 | 157 |
| 5.92 | < 5.00 | 6.89 | O[C@H]1[C@H](O)[C@@H](O)CN(CCCC[C@H](F)COCc2ccc(Cl)cc2)C[C@@H]1O (single isomer, unassigned) [Example 107] | 110 | 141 | 157 | 199 | 109 |
| 5.49 | < 5.00 | 6.17 | Cc1ccc(COC[C@@H](F)CCCCN2C[C@H](O)[C@@H](O)[C@H](O)[C@@H](O)C2)cc1 (single isomer, unassigned) [Example 135] | 108 | 127 | 153 | 191 | 102 |
| 5.29 | < 5.00 | 6.66 | O[C@H]1[C@H](O)[C@@H](O)CN(CCCC[C@H](F)COCc2ccc(-c3cc(F)cc(F)c3)nn2)C[C@@H]1O (single isomer, unassigned) [Example 139] | 119 | 154 | 157 | 204 | 115 |
| 5.29 | < 5.00 | 5.70 | Cc1ccc(COCCCCCCN2C[C@H](O)[C@@H](O)[C@H](O)[C@@H](O)C2)cc1 [Example 1, (3S,4R,5R,6S)-1-{6-[(4-methylbenzyl)oxy]hexyl}-3,4,5,6-azepanetetrol] | 166 | 200 | 221 | 230 | 155 |
| 5.62 | < 5.00 | 7.22 | O[C@H]1[C@H](O)[C@@H](O)CN(CCCCCCOCc2csc(-c3cc(F)cc(F)c3)n2)C[C@@H]1O [Example 21, (3S,4R,5R,6S)-1-(6-{[2-(3,5-difluorophenyl)-1,3-thiazol-4-yl]methoxy}hexyl)-3,4,5,6-azepanetetrol] |  |  |  |  |  |

— US20260242368A1, “GBA1 AND GCS DUAL MODULATOR” (ONO PHARMACEUTICAL CO., LTD., priority 2023, published 2026)
